Measured values published in patent publication US12042481B2, “Use of (1R,5S)-(+)-1-(naphthalen-2-yl)-3-azabicyclo[3.1.0]hexane in the treatment of conditions affected by monoamine neurotransmitters” (priority 2011, dated 2024).

Experiments:
[1] = test system: 6-OHDA-lesioned juvenile rats; assay: Locomotor activity of juvenile rats with neonatal 6-OHDA lesions (model of ADHD); format: in vivo, rat
Protocol: The behavioral effects of (1R,5S)-(+)-1-(naphthalen-2-yl)-3-azabicyclo[3.1.0]hexane were evaluated in a model of ADHD, which can be simulated in juvenile rates with neonatal 6-hydroxydopamine (6-OHDA) lesions (Davids et al., 2003). In this animal model, the NE neurons are protected from the neurotoxic effects of 6-OHDA by pretreatment with the NE transporter inhibitor desipramine, so the NE system is largely intact and can respond to NE transporter inhibitors (Davids et al., 2002). Furthermore, the 6-OHDA lesions produce learning and memory deficits in learning models including the T maze, and active and passive avoidance tasks (Shaywitz et al., 1978; Wool et al., 1987; Takasuna and Iwasaki, 1996). Performance in these learning and memory models was improved by administration of stimulants (Shaywitz et al., 1978; Wool et al., 1987). Thus, this model incorporates both hyperactivity and learning deficits found in ADHD.
(§1) Methods of lesioning neonatal rats with 6-OHDA were carried out as detailed in Zhang et al. (2001). Briefly, on postnatal day 1 (PD 1), male Sprague-Dawley rat pups were randomly assigned to a nursing dam (10/dam). On PD 5, pups receive a subcutaneous injection of 25 mg/kg desipramine hydrochloride to protect noradrenergic neurons, followed in 45 min. by randomly assigned intracisternal injection of vehicle or 6-OHDA hydrobromide (100 μg free base) under hypothermic anesthesia. Pups were returned to nursing dams immediately after the intracranial injections. Locomotor activity was monitored individually for 90 min. in the periadolescent period on PD 25, using a microcomputer controlled infrared photobeam activity monitoring system. Locomotor activity was defined as breaking of consecutive photobeams and the activity accumulated in 5 minute bins. Behavioral testing was conducted in a novel environment (transparent plastic cages containing fresh bedding) within a grid of horizontal infrared beams. Each dose of (1R,5S)-(+)-1-(naphthalen-2-yl)-3-azabicyclo[3.1.0]hexane (1, 3 and 10 mg/kg) or methylphenidate (3 mg/kg) was dissolved in saline and given i.p. immediately prior to testing. The effects of sham versus 6-OHDA lesions on dopamine neurons in rats were quantified as decrements of DA transporters labeled with [31-1]2-(3-carbomethoxy-3-β-[4′-iodophenyl]tropane ([^3H]β-CIT), a selective DA transporter radioligand (Kula et al. 1999). Sections were preincubated (60 min., room temp [RT]) in 50 mM Tris-HCl buffer (pH 7.7) containing 120 mM NaCl and 4 mM MgCl2, then in fresh buffer (60 min) containing 2 nM [3H](3-CIT. Nonspecific binding was defined with 1 μM GBR-12909. Slides were then washed (2×5 min) in ice-cold buffer, dipped in ice-cold water, and air-dried. Radiolabeled slides and calibrated [^3H]standards were exposed to [^3H]sensitive films for 10-14 d at 4° C. Tritium-sensitive Hyperfilms were developed and fixed in Kodak D-19 for 5 min. at RT. Images were quantified with a computer-controlled MCID image analyzer. Brain regions of interest were outlined and their optical density was measured with two sections representing total binding, with two samples representing nonspecific binding. Optical density of sampled regions was measured and the amount of ligand bound within each area was calculated as nCi/mg tissue. Mean values of non-specific binding in each region were subtracted from the mean total binding to determine specific binding, which was converted into fmol/mg of radioligand bound.

dopamine transporters = assay: Autoradiographic binding of [3H]β-CIT to dopamine transporters in juvenile rat brain after neonatal 6-OHDA lesioning; format: in vivo; details: for specific binding of [3H]β-CIT to dopamine transporters, 6-OHDA Lesioned: mean ± SEM
Protocol: as §1

SMILES | cumulative locomotor score ([1]; 6-OHDA-lesioned rats, PD 25, 90 minute testing period) | fold difference of cumulative locomotor score versus sham-lesioned rats ([1]; PD 25, 90 minute testing period, p<0.001) [fold] | % Sham Lesion, binding of [3H]β-CIT (dopamine transporters; lateral caudate-putamen) [%] | specific binding of [3H]β-CIT to dopamine transporters, 6-OHDA Lesioned (dopamine transporters; lateral caudate-putamen) [fmol/mg tissue] | % Sham Lesion, binding of [3H]β-CIT (dopamine transporters; medial caudate-putamen) [%] | specific binding of [3H]β-CIT to dopamine transporters, 6-OHDA Lesioned (dopamine transporters; medial caudate-putamen) [fmol/mg tissue] | % Sham Lesion, binding of [3H]β-CIT (dopamine transporters; nucleus accumbens septi) [%] | specific binding of [3H]β-CIT to dopamine transporters, 6-OHDA Lesioned (dopamine transporters; nucleus accumbens septi) [fmol/mg tissue] | locomotor activity (FIGS. 7A and 7B) ([1]; 6-OHDA-lesioned juvenile rats at PD25, p<0.05 versus vehicle) | time over which locomotor activity was significantly attenuated ([1]; methylphenidate 3 mg/kg i.p., PD 25, 90 min test) [min]
NCCc1cc(O)c(O)cc1O [6-OHDA, 6-hydroxydopamine] | 2758±3.0 | 9 | 25.7 | 30.9 ± 2.4 | 22.2 | 24.9 ± 3.5 | 32.2 | 22.8 ± 1.8 | – | –
COC(=O)C(c1ccccc1)C1CCCCN1 (stereo not shown) [methylphenidate, reference compound] | – | – | – | – | – | – | – | – | reduced locomotor activity | 90
